What was measured:
Conditions in all cases: 72 h
[1] = test system: HepG2; assay: cell viability relative to DMSO; higher = less toxic
[2] = test system: Calu-3; assay: as above
[3] = test system: Caco-2; assay: as above
[4] = test system: U2OS; assay: as above
[5] = test system: Vero E6; assay: as above
[6] = test system: HepG2; assay: relative viability EC50 (midpoint between 100% and the lowest measured viability); higher = less toxic
[7] = test system: Calu-3; assay: as above
[8] = test system: Caco-2; assay: as above
[9] = test system: U2OS; assay: as above
[10] = test system: Vero E6; assay: as above
[11] = test system: HepG2; assay: drug sensitivity score (DSS) for viability; higher = more toxic; extreme values may be limits of the assay
[12] = test system: Calu-3; assay: as above
[13] = test system: Caco-2; assay: as above
[14] = test system: U2OS; assay: as above
[15] = test system: Vero E6; assay: as above

SMILES | cell viability ([1]; 1 nM) | cell viability ([1]; 10 nM) | cell viability ([1]; 100 nM) | cell viability ([1]; 1000 nM) | cell viability ([1]; 10000 nM) | cell viability ([2]; 1 nM) | cell viability ([2]; 10 nM) | cell viability ([2]; 100 nM) | cell viability ([2]; 1000 nM) | cell viability ([2]; 10000 nM) | cell viability ([3]; 1 nM) | cell viability ([3]; 10 nM) | cell viability ([3]; 100 nM) | cell viability ([3]; 1000 nM) | cell viability ([3]; 10000 nM) | cell viability ([4]; 1 nM) | cell viability ([4]; 10 nM) | cell viability ([4]; 100 nM) | cell viability ([4]; 1000 nM) | cell viability ([4]; 10000 nM) | cell viability ([5]; 1 nM) | cell viability ([5]; 10 nM) | cell viability ([5]; 100 nM) | cell viability ([5]; 1000 nM) | cell viability ([5]; 10000 nM) | relative viability EC50 [6] | relative viability EC50 [7] | relative viability EC50 [8] | relative viability EC50 [9] | relative viability EC50 [10] | drug sensitivity score [11] | drug sensitivity score [12] | drug sensitivity score [13] | drug sensitivity score [14] | drug sensitivity score [15]
Cc1ncc(-c2ccnc(Nc3ccc(S(C)(=O)=O)cc3)n2)n1C(C)C [AZD5438] | 100% | 95% | 106% | 77.3% | 6.7% | 98.9% | 97.1% | 104% | 106% | 38.1% | 97.1% | 97.8% | 104% | 96.8% | 27.7% | 104% | 105% | 108% | 102% | 10.1% | 97.6% | 102% | 96.4% | 91.6% | 12.6% | 1.58 µM | 3.65 µM | 2.84 µM | 3.29 µM | 2.36 µM | 8.7 | 2.9 | 4.4 | 4.8 | 6.2
COc1cc(C)[nH]c(=O)c1CNC(=O)c1c(C)n([C@H](C)C2CCOCC2)c2ccccc12 [CPI-360] | 107% | 97.6% | 96.7% | 90.7% | 92.2% | 101% | 113% | 101% | 105% | 95.7% | 107% | 106% | 99.2% | 107% | 95.7% | 99.7% | 101% | 100% | 102% | 101% | 108% | 102% | 108% | 96.3% | 104% | > 10 µM | > 10 µM | > 10 µM | > 10 µM | > 10 µM | 0 | 0 | 0 | 0 | 0
C#Cc1cccc(Nc2ncnc3cc(OC)c(OCCCCCCC(=O)NO)cc23)c1 [CUDC-101] | 96.3% | 110% | 94.9% | 25.7% | 0.1% | 96.7% | 98.8% | 81.5% | 37.2% | 9% | 97% | 89.7% | 90.6% | 81.8% | 39.6% | 97.7% | 99.6% | 93.4% | 68.5% | 2% | 98.6% | 96% | 94.6% | 80.2% | 8.4% | 0.548 µM | 0.419 µM | 1.55 µM | 1.41 µM | 1.67 µM | 14.7 | 14.1 | 5.4 | 9.6 | 8.2
COC(=O)c1sccc1S(=O)(=O)Nc1ccc(Nc2ccccc2)cc1OC [GSK0660] | 91.4% | 109% | 102% | 101% | 92.6% | 106% | 102% | 101% | 93.1% | 102% | 96.8% | 86.2% | 104% | 105% | 98.9% | 101% | 95.4% | 98.8% | 95.5% | 93.5% | 91.9% | 104% | 94.8% | 102% | 104% | > 10 µM | > 10 µM | > 10 µM | > 10 µM | > 10 µM | 0 | 0 | 0 | 0 | 0
CS(=O)(=O)N(Cc1ccco1)C[C@@H](O)Cn1c2ccccc2c2ccccc21 [KL-001] | 98.9% | 104% | 97.2% | 104% | 106% | 105% | 93.2% | 101% | 115% | 110% | 95.6% | 98.5% | 102% | 94.1% | 94.6% | 98.3% | 98.4% | 99% | 93.7% | 90% | 99% | 101% | 97.6% | 100% | 98% | > 10 µM | > 10 µM | > 10 µM | > 10 µM | > 10 µM | 0 | 0 | 0 | 0 | 0

Reference: the supplement of paper PMC13380429
